Among the data in patent US20140005163A1 (NOVARTIS AG, priority 2010, published 2014) are IC50 values, retold here.

For one test, the target named is T1, PI3K alpha (Homo sapiens, UniProt P42336).
T1 construct: p85(iSH2) fusion partner (see partner chain) (N); His tag (C); made in house; host or cells: baculovirus; Tn5 (Trichoplusia ni) or TiniPro insect cells
Briefly: PI3K alpha kinase assay (Kinase-Glo luminescence). Type of test: biochemical. A digest of the protocol:
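Enzyme 10 nM PI3Kα EMV B1075; ATP 1 μM; PI 10 μg/mL; Tris-HCl pH 7.5 10 mM, MgCl2 3 mM, NaCl 50 mM, CHAPS 0.05%, DTT 1 mM; 60 min RT; Kinase-Glo luminescence; 4-parameter IC50 fit, 8 concentrations, single points.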

Another test deals with T2, PI3K beta (Homo sapiens, UniProt P42338).
T2 construct: for the full-length p110-b subunit are generated and fused by overlapping PCR; p85(iSH2) fusion partner (see partner chain) (N); His tag (C); made in house; host or cells: baculovirus; Tn5 (Trichoplusia ni) or TiniPro insect cells
Briefly: PI3K beta kinase assay (Kinase-Glo luminescence). The test is classed as biochemical. A digest of the protocol:
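Full-length p110β with a Gly-linked p85 iSH2 and a C-terminal His tag (BV949, 25 nM) was incubated with 10 μg/mL phosphatidylinositol and 1 μM ATP in 10 mM Tris pH 7.5, 3 mM MgCl2, 50 mM NaCl, 0.05% CHAPS, 1 mM DTT for 60 min at room temperature. Residual ATP was read by Kinase-Glo luminescence.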

The test system of test [1] is PKB Ser473 phosphorylation in Rat1-myr-HA-p110 alpha cells. Briefly: Reverse protein array assay, PKB Ser473 phosphorylation in Rat1-myr-p110 alpha cells. Type of test: cell-based. As to conditions: 0.5 h, pAkt Ser473, 30 minutes compound incubation, read-out: p-PKB IC50. A digest of the protocol:
(§1)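 Cells: Rat1-myr-HA-p110 alpha/beta/delta, seeded ≥20 h. Lysis on ice 10 min; reverse-phase protein array, 4 lysate dilutions; fluorescence read, relative intensity.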

Test [2] relates to PKB Ser473 phosphorylation in Rat1-myr-HA-p110 beta cells. Briefly: Reverse protein array assay, PKB Ser473 phosphorylation in Rat1-myr-p110 beta cells. The test is classed as cell-based. As to conditions: 0.5 h, pAkt Ser473, 30 minutes incubation, read-out: p-PKB IC50. A digest of the protocol: as §1
For test [3], the system named is PKB Ser473 phosphorylation in Rat1-myr-HA-p110 delta cells. Description: Reverse protein array assay, PKB Ser473 phosphorylation in Rat1-myr-p110 delta cells. As to conditions: read-out: p-PKB IC50. The test is classed as cell-based. A digest of the protocol:
as §1

A word on the IC50: it is the concentration that inhibits the measured activity by half.

T2 sequence (P42338 with tags, fused parts or gaps limits assumed): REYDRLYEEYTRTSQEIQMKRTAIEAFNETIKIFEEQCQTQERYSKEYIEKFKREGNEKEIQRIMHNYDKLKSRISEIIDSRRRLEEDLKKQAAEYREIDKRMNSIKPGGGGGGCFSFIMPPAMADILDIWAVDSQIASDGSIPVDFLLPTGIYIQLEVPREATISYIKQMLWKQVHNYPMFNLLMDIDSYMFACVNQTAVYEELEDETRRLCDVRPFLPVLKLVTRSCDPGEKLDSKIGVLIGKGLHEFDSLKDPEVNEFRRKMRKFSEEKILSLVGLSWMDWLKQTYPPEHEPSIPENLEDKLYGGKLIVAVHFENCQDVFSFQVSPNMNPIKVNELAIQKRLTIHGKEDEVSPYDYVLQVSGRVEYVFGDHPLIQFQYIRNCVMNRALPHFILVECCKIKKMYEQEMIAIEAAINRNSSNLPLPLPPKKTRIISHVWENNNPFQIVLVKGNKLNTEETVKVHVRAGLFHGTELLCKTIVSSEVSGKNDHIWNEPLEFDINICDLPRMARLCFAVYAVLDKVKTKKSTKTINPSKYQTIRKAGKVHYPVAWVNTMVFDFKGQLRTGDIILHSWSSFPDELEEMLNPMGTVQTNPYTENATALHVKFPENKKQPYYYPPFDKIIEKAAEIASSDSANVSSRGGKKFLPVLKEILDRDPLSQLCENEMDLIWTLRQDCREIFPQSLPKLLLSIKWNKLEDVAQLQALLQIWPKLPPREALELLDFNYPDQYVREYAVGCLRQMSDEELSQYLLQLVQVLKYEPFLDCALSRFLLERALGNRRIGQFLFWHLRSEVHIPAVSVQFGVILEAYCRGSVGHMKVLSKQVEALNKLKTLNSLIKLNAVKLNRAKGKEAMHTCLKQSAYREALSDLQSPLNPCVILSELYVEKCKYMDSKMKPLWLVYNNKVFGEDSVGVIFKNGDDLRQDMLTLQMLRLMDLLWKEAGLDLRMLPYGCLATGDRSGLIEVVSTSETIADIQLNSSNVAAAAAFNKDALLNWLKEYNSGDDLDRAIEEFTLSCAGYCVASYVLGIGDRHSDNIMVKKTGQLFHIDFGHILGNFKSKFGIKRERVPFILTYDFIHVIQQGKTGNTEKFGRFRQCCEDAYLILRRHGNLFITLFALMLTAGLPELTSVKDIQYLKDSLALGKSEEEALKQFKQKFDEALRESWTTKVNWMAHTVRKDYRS
T1 sequence (P42336 with tags, fused parts or gaps limits assumed): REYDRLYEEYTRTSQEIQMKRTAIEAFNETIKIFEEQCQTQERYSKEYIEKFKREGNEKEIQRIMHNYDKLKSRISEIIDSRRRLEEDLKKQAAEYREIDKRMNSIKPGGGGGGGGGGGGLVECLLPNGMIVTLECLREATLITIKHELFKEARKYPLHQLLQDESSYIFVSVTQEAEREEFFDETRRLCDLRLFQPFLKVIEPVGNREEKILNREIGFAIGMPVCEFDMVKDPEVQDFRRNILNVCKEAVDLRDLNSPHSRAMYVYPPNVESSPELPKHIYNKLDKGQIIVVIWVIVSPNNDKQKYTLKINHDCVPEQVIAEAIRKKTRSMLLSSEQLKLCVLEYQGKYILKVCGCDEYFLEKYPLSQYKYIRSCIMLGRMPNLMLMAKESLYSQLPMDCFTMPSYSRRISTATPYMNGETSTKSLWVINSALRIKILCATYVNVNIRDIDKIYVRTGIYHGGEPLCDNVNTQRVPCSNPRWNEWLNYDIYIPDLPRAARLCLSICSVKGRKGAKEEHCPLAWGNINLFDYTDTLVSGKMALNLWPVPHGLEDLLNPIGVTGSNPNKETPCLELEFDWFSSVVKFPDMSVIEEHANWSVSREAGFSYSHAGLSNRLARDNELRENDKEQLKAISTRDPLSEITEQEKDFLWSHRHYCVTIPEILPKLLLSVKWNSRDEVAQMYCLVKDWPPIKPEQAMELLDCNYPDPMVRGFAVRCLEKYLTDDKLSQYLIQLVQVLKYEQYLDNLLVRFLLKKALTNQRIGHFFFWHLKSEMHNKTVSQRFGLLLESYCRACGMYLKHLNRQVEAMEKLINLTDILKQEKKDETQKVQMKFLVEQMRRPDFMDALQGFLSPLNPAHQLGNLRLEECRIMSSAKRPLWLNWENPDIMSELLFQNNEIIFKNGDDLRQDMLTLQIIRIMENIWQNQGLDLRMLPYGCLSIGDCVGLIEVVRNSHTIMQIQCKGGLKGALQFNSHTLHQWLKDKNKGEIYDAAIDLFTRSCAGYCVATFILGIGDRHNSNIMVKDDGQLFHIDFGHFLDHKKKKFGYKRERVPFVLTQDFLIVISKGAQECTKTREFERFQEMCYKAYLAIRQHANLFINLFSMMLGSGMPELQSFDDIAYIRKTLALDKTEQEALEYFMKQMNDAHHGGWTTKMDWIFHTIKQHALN

For the compound `Cc1nn(C)cc1-n1c(=O)n(C)c2cnc3ccc(-c4cccc(N(C)S(C)(=O)=O)c4)cc3c21` [Example 117, N-{3-[1-(1,3-Dimethyl-1H-pyrazol-4-yl)-3-methyl-2-oxo-2,3-dihydro-1H-imidazo[4,5-c]quinolin-8-yl]-phenyl}-N-methyl-methanesulfonamide], the concentration for half-maximal inhibition (IC50) worked out at 58 nM at PI3K alpha; 907 nM at PI3K beta; 282 nM in test [1]; 659 nM in test [2]; 425 nM in test [3].

Take `Cc1nn(C)cc1-n1c(=O)n(C)c2cnc3ccc(-c4cnc(N)c(F)c4)cc3c21` [Example 142.2, 8-(6-Amino-5-fluoro-pyridin-3-yl)-1-(1,3-dimethyl-1H-pyrazol-4-yl)-3-methyl-1,3-dihydro-imidazo[4,5-c]quinolin-2-one]: the concentration for half-maximal inhibition (IC50) at PI3K alpha came out at 18 nM; on PI3K beta, 287 nM; in test [1], 6 nM; in test [2] it was 11 nM; in test [3] it was 19 nM.

As for `Cc1nn(C(C)C)cc1-n1c(=O)n(C)c2cnc3ccc(-c4cnc(N(C)C)nc4)cc3c21` [Example 6.1, 8-(2-Dimethylamino-pyrimidin-5-yl)-1-(1-isopropyl-3-methyl-1H-pyrazol-4-yl)-3-methyl-1,3-dihydro-imidazo[4,5-c]quinolin-2-one], the IC50 at PI3K alpha is 29 nM; at PI3K beta it was 227 nM; in test [1], 61 nM; in test [2], 43 nM; in test [3], 90 nM.

With `CCOC(C)(C)c1cncc(-c2ccc3ncc4c(c3c2)n(-c2cn(C)nc2C)c(=O)n4C)c1` [Example 240, 1-(1,3-Dimethyl-1H-pyrazol-4-yl)-8-[5-(1-ethoxy-1-methyl-ethyl)-pyridin-3-yl]-3-methyl-1,3-dihydro-imidazo[4,5-c]quinolin-2-one], the IC50 on PI3K alpha was found to be 6 nM; at PI3K beta, 91 nM; in test [1] it was 72 nM; in test [2], 128 nM; in test [3] it was 131 nM.

With `COc1ccc(-c2ccc3ncc4c(c3c2)n(-c2cn(CC(=O)N(C)C)nc2C)c(=O)n4C)cn1` [Example 102, 2-{4-[8-(6-Methoxy-pyridin-3-yl)-3-methyl-2-oxo-2,3-dihydro-imidazo[4,5-c]quinolin-1-yl]-3-methyl-pyrazol-1-yl}-N,N-dimethyl-acetamide], the IC50 at PI3K alpha amounted to 13 nM; on PI3K beta, 291 nM; in test [1], 33 nM; in test [2], 34 nM; in test [3], 78 nM.

`Cc1nn(C)cc1-n1c(=O)n(C)c2cnc3ccc(-c4cncnc4)cc3c21` [Example 26, 1-(1,3-Dimethyl-1H-pyrazol-4-yl)-3-methyl-8-pyrimidin-5-yl-1,3-dihydro-imidazo[4,5-c]quinolin-2-one]: the IC50 is 103 nM on PI3K alpha; 517 nM at PI3K beta; 159 nM in test [1]; 226 nM in test [2]; 450 nM in test [3].

Regarding `Cc1nn(C)cc1-n1c(=O)n(C)c2cnc3ccc(-c4cnc(Cl)c(N)c4)cc3c21` [Example 152.2, 8-(5-Amino-6-chloro-pyridin-3-yl)-1-(1,3-dimethyl-1H-pyrazol-4-yl)-3-methyl-1,3-dihydro-imidazo[4,5-c]quinolin-2-one], the IC50 was 17 nM at PI3K alpha; 33 nM on PI3K beta; under 5 nM in test [1]; 10 nM in test [2]; 33 nM in test [3].

As to `Cc1nn(C(C)C)cc1-n1c(=O)n(C)c2cnc3ccc(-c4cncc(C(O)(CF)CF)c4)cc3c21` [Example 219, 8-[5-(2-Fluoro-1-fluoromethyl-1-hydroxy-ethyl)-pyridin-3-yl]-1-(1-isopropyl-3-methyl-1H-pyrazol-4-yl)-3-methyl-1,3-dihydro-imidazo[4,5-c]quinolin-2-one], the IC50 on PI3K alpha amounted to 12 nM; at PI3K beta, 49 nM; in test [1], 52 nM; in test [2], 497 nM; in test [3], 297 nM.

On to `CCn1cc(-n2c(=O)n(C)c3cnc4ccc(-c5cncc(C6(C#N)CCC6)c5)cc4c32)c(C)n1` [Example 221.2, 1-{5-[1-(1-Ethyl-3-methyl-1H-pyrazol-4-yl)-3-methyl-2-oxo-2,3-dihydro-1H-imidazo[4,5-c]quinolin-8-yl]-pyridin-3-yl}-cyclobutanecarbonitrile], for which the half-maximal inhibitory concentration (IC50) worked out at 13 nM on PI3K alpha; 29 nM on PI3K beta; 18 nM in test [1]; 103 nM in test [2]; 56 nM in test [3].

For `CNc1cc(-c2ccc3ncc4c(c3c2)n(-c2c(C)nn(C)c2C)c(=O)n4C)cnc1CO` [Example 158.4, 8-(6-Hydroxymethyl-5-methylamino-pyridin-3-yl)-3-methyl-1-(1,3,5-trimethyl-1H-pyrazol-4-yl)-1,3-dihydro-imidazo[4,5-c]quinolin-2-one], the IC50 turned out to be 72 nM at PI3K alpha; 112 nM on PI3K beta; 114 nM in test [1]; 88 nM in test [2]; 95 nM in test [3].

In the case of `Cc1nn(C)cc1-n1c(=O)n(C)c2cnc3ccc(-c4cnc5[nH]ccc5c4)cc3c21` [Example 36, 1-(1,3-dimethyl-1H-pyrazol-4-yl)-3-methyl-8-(1H-pyrrolo[2,3-b]pyridin-5-yl)-1,3-dihydro-imidazo[4,5-c]quinolin-2-one], the IC50 on PI3K alpha stood at 9 nM; on PI3K beta, 32 nM; in test [1], 5 nM; in test [2], 6 nM; in test [3], 8 nM.

As for `Cc1nn(C)cc1-n1c(=O)n(C)c2cnc3ccc(-c4cc(O)cc(C(F)(F)F)c4)cc3c21` [Example 34, 1-(1,3-Dimethyl-1H-pyrazol-4-yl)-8-(3-hydroxy-5-trifluoromethyl-phenyl)-3-methyl-1,3-dihydro-imidazo[4,5-c]quinolin-2-one], the IC50 at PI3K alpha was 7 nM; at PI3K beta it was 15 nM; in test [1], 138 nM; in test [2] it was 153 nM; in test [3], 202 nM.

Consider `CCOc1cccc(-c2ccc3ncc4c(c3c2)n(-c2cn(C)nc2C)c(=O)n4C)c1` [Example 57, 1-(1,3-Dimethyl-1H-pyrazol-4-yl)-8-(3-ethoxy-phenyl)-3-methyl-1,3-dihydro-imidazo[4,5-c]quinolin-2-one], for which the 50% inhibitory concentration (IC50) amounted to 38 nM at PI3K alpha; 215 nM on PI3K beta; 51 nM in test [1]; 106 nM in test [2]; 288 nM in test [3].

Take `CCOCc1ncc(-c2ccc3ncc4c(c3c2)n(-c2cn(C)nc2Cl)c(=O)n4C)cc1OC` [Example 196.1, 1-(3-Chloro-1-methyl-1H-pyrazol-4-yl)-8-(6-ethoxymethyl-5-methoxy-pyridin-3-yl)-3-methyl-1,3-dihydro-imidazo[4,5-c]quinolin-2-one]: the IC50 on PI3K alpha amounted to 29 nM; on PI3K beta, 77 nM; in test [1], 45 nM; in test [2] it was 103 nM; in test [3], 58 nM.

Consider `COc1ncc(-c2ccc3ncc4c(c3c2)n(-c2cn(C)nc2C)c(=O)n4C)cc1N(C)C(C)=O` [Example 62, N-{5-[1-(1,3-Dimethyl-1H-pyrazol-4-yl)-3-methyl-2-oxo-2,3-dihydro-1H-imidazo[4,5-c]quinolin-8-yl]-2-methoxy-pyridin-3-yl}-N-methyl-acetamide], for which the half-inhibitory concentration (IC50) on PI3K alpha is 61 nM; at PI3K beta it was 83 nM; in test [1], 469 nM; in test [2], 516 nM; in test [3] it was 276 nM.
